Reference: patent publication US20070213339A1 (Bayer Pharmaceuticals Corporation, priority 2004, published 2007)

Each compound was assayed on Colo205 human colon carcinoma cell line (assay: In vitro tumor cell proliferation assay (MTS, CellTiter 96 Aqueous One Solution)). Details: COLO 205, Colo205 cells, 72 hours compound exposure, MTS absorbance at 490 nm, read-out: IC50 (concentration of test compound required to inhibit proliferation of 50% of the cells).
Type: cell-based
In short: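 Colo205 cells seeded at 2000 cells/well in RPMI-1640 with 10% serum, exposed to compound for 72 h at 37 °C, 5% CO2, in a 5-point dose-response up to 10-20 μM. Viability read by MTS absorbance at 490 nm; IC50 from background-corrected percent inhibition by linear regression.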

| IC50 [nM] | Compound |
| --- | --- |
| 2000 to 20000 | CON(C)Cc1ccc(-n2cc(C(=O)O)c(=O)c3cc(F)c(N4CCN(c5ccc(Cl)cc5)CC4)c(Cl)c32)cc1 [Example 52, 8-chloro-7-[4-(4-chlorophenyl)piperazin-1-yl]-6-fluoro-1-(4-{[methoxy(methyl)amino]methyl}phenyl)-4-oxo-1,4-dihydroquinoline-3-carboxylic acid] |
| < 500 | CN(C)Cc1ccc(-n2cc(C(=O)O)c(=O)c3cc(F)c(N4CCN(c5ccc(Cl)cc5)CC4)c(OC(F)(F)Cl)c32)cc1 [Example 156, 8-[chloro(difluoro)methoxy]-7-[4-(4-chlorophenyl)piperazin-1-yl]-1-{4-[(dimethylamino)methyl]phenyl}-6-fluoro-4-oxo-1,4-dihydroquinoline-3-carboxylic acid] |
| 500 to 2000 | O=C(O)c1cn(-c2cccc(CN3CCCCC3)c2)c2c(OC(F)(F)F)c(N3CCN(c4ccc(F)cc4)CC3)c(F)cc2c1=O [Example 141, 6-fluoro-7-[4-(4-fluorophenyl)piperazin-1-yl]-4-oxo-1-[3-(piperidin-1-ylmethyl)phenyl]-8-(trifluoromethoxy)-1,4-dihydroquinoline-3-carboxylic acid] |
| < 500 | COc1c(N2CCN(c3ccccn3)CC2)c(F)cc2c(=O)c(C(=O)O)cn(-c3ccc(CN4CCCC4)cc3)c12 [Example 72, 6-fluoro-8-methoxy-4-oxo-7-(4-pyridin-2-ylpiperazin-1-yl)-1-[4-(pyrrolidin-1-ylmethyl)phenyl]-1,4-dihydroquinoline-3-carboxylic acid] |
| < 500 | COC[C@@H]1CCCN1Cc1ccc(-n2cc(C(=O)O)c(=O)c3cc(F)c(N4CCN(c5ncccn5)CC4)c(Cl)c32)cc1 [Example 26, 8-chloro-6-fluoro-1-(4-{[(2S)-2-(methoxy-methyl)pyrrolidin-1-yl]methyl}phenyl)-4-oxo-7-(4-pyrimidin-2-ylpiperazin-1-yl)-1,4-dihydroquinoline-3-carboxylic acid] |
| < 500 | COc1c(N2CCN(c3ncccn3)CC2)c(F)cc2c(=O)c(C(=O)O)cn(-c3ccc(CN4CCCC4)cc3)c12 [Example 73, 6-fluoro-8-methoxy-4-oxo-7-(4-pyrimidin-2-ylpiperazin-1-yl)-1-[4-(pyrrolidin-1-ylmethyl)phenyl]-1,4-dihydroquinoline-3-carboxylic acid] |
| < 500 | COc1c(N2CCN(c3cccc(F)c3)CC2)c(F)cc2c(=O)c(C(=O)O)cn(-c3ccc(CN4CCCC4)cc3)c12 [Example 85, 6-fluoro-7-[4-(3-fluorophenyl)piperazin-1-yl]-8-methoxy-4-oxo-1-[4-(pyrrolidin-1-ylmethyl)phenyl]-1,4-dihydroquinoline-3-carboxylic acid] |
| 500 to 2000 | CCN(CC)Cc1ccc(-n2cc(C(=O)O)c(=O)c3cc(F)c(N4CCN(c5cc(Cl)ccc5C)CC4)c(OC(F)(F)F)c32)cc1 [Example 134, 7-[4-(5-chloro-2-methylphenyl)piperazin-1-yl]-1-{4-[(diethylamino)methyl]phenyl}-6-fluoro-4-oxo-8-(trifluoromethoxy)-1,4-dihydroquinoline-3-carboxylic acid] |
| < 500 | N#Cc1ccccc1N1CCN(c2c(F)cc3c(=O)c(C(=O)O)cn(-c4ccc(CN5CC[C@@H](O)C5)cc4)c3c2Cl)CC1 [Example 32, 8-chloro-7-[4-(2-cyanophenyl)piperazin-1-yl]-6-fluoro-1-(4-{[(3R)-3-hydroxypyrrolidin-1-yl]methyl}phenyl)-4-oxo-1,4-dihydroquinoline-3-carboxylic acid] |
| < 500 | O=C(O)c1cn(-c2ccc(CN3CCCC3)cc2)c2c(Cl)c(N3CCN(c4ccc(F)cc4)CC3)c(F)cc2c1=O [Example 2, 8-chloro-6-fluoro-7-[4-(4-fluorophenyl)-piperazin-1-yl]-4-oxo-1-[4-(pyrrolidin-1-ylmethyl)phenyl]-1,4-dihydroquinoline-3-carboxylic acid] |
| < 500 | COc1c(N2CCN(c3ccc(C#N)cc3)CC2)c(F)cc2c(=O)c(C(=O)O)cn(-c3ccc(CN4CCCC4)cc3)c12 [Example 77, 7-[4-(4-cyanophenyl)piperazin-1-yl]-6-fluoro-8-methoxy-4-oxo-1-[4-(pyrrolidin-1-ylmethyl)phenyl]-1,4-dihydroquinoline-3-carboxylic acid] |
| < 500 | O=C(O)c1cn(-c2ccc(CN3CCCC3)cc2)c2c(OC(F)(F)F)c(N3CCN(c4ccc(F)cc4)CC3)c(F)cc2c1=O [Example 121, 6-fluoro-7-[4-(4-fluorophenyl)piperazin-1-yl]-4-oxo-1-[4-(pyrrolidin-1-ylmethyl)phenyl]-8-(trifluoromethoxy)-1,4-dihydroquinoline-3-carboxylic acid] |
| 500 to 2000 | COc1c(N2CCN(c3ccc(Cl)cc3)CC2)c(F)cc2c(=O)c(C(=O)O)cn(-c3ccc(CN4CCCC4)cc3)c12 [Example 80, 7-[4-(4-chlorophenyl)piperazin-1-yl]-6-fluoro-8-methoxy-4-oxo-1-[4-(pyrrolidin-1-ylmethyl)phenyl]-1,4-dihydroquinoline-3-carboxylic acid] |
| < 500 | COc1c(N2CCN(c3ncccc3C#N)CC2)c(F)cc2c(=O)c(C(=O)O)cn(-c3ccc(CN4CCCC4)cc3)c12 [Example 79, 7-[4-(3-cyanopyridin-2-yl)piperazin-1-yl]-6-fluoro-8-methoxy-4-oxo-1-[4-(pyrrolidin-1-ylmethyl)phenyl]-1,4-dihydroquinoline-3-carboxylic acid] |
| 500 to 2000 | O=C(O)c1cn(-c2ccc(CN3CCCC3)nc2)c2c(Cl)c(N3CCN(c4ccccn4)CC3)c(F)cc2c1=O [Example 34, 8-chloro-6-fluoro-4-oxo-7-(4-pyridin-2-yl-piperazin-1-yl)-1-[6-(pyrrolidin-1-ylmethyl)pyridin-3-yl]-1,4-dihydroquinoline-3-carboxylic acid] |
| 500 to 2000 | Cc1ccccc1N1CCN(c2c(F)cc3c(=O)c(C(=O)O)cn(-c4ccc(CN5CCCC5)cc4)c3c2Cl)CC1 [Example 11, 8-chloro-6-fluoro-7-[4-(2-methylphenyl)-piperazin-1-yl]-4-oxo-1-[4-(pyrrolidin-1-ylmethyl)phenyl]-1,4-dihydroquinoline-3-carboxylic acid] |
| < 500 | Cc1cccc(N2CCN(c3c(F)cc4c(=O)c(C(=O)O)cn(-c5ccc(CN6CCCC6)cc5)c4c3OC(F)(F)F)CC2)n1 [Example 120, 6-fluoro-7-[4-(6-methylpyridin-2-yl)piperazin-1-yl]-4-oxo-1-[4-(pyrrolidin-1-ylmethyl)phenyl]-8-(trifluoromethoxy)-1,4-dihydroquinoline-3-carboxylic acid] |
| < 500 | CN(Cc1ccc(-n2cc(C(=O)O)c(=O)c3cc(F)c(N4CCN(c5ccccn5)CC4)c(Cl)c32)cc1)C1CCCCC1 [Example 61, 8-chloro-1-(4-{[cyclohexyl(methyl)amino]-methyl}phenyl)-6-fluoro-4-oxo-7-(4-pyridin-2-ylpiperazin-1-yl)-1,4-dihydroquinoline-3-carboxylic acid] |
| < 500 | COc1c(N2CCN(c3ccc(Cl)cc3)CC2)c(F)cc2c(=O)c(C(=O)O)cn(-c3ccc(CN4CCCCC4)cc3)c12 [Example 90, 7-[4-(4-chlorophenyl)piperazin-1-yl]-6-fluoro-8-methoxy-4-oxo-1-[4-(piperidin-1-ylmethyl)phenyl]-1,4-dihydroquinoline-3-carboxylic acid] |
| 500 to 2000 | COc1c(N2CCN(c3ccc([N+](=O)[O-])cc3F)CC2)c(F)cc2c(=O)c(C(=O)O)cn(-c3ccc(CN4CCCC4)cc3)c12 [Example 87, 6-fluoro-7-[4-(2-fluoro-4-nitrophenyl)piperazin-1-yl]-8-methoxy-4-oxo-1-[4-(pyrrolidin-1-ylmethyl)phenyl]-1,4-dihydroquinoline-3-carboxylic acid] |
| 2000 to 20000 | CON(C)Cc1ccc(-n2cc(C(=O)O)c(=O)c3cc(F)c(N4CCN(c5ncccn5)CC4)c(Cl)c32)cc1 [Example 50, 8-chloro-6-fluoro-1-(4-{[methoxy(methyl)-amino]methyl}phenyl)-4-oxo-7-(4-pyrimidin-2-ylpiperazin-1-yl)-1,4-dihydroquinoline-3-carboxylic acid] |
| < 500 | O=C(O)c1cn(-c2ccc(CN3CCCC3)cc2)c2c(OC(F)(F)Cl)c(N3CCN(c4ccc(Cl)cc4)CC3)c(F)cc2c1=O [Example 148, 8-[chloro(difluoro)methoxy]-7-[4-(4-chlorophenyl)piperazin-1-yl]-6-fluoro-4-oxo-1-[4-(pyrrolidin-1-ylmethyl)phenyl]-1,4-dihydroquinoline-3-carboxylic acid] |
| 500 to 2000 | COc1c(N2CCN(c3ccc(C(C)=O)cc3)CC2)c(F)cc2c(=O)c(C(=O)O)cn(-c3ccc(CN4CCCC4)cc3)c12 [Example 78, 7-[4-(4-acetylphenyl)piperazin-1-yl]-6-fluoro-8-methoxy-4-oxo-1-[4-(pyrrolidin-1-ylmethyl)phenyl]-1,4-dihydroquinoline-3-carboxylic acid] |
| < 500 | O=C(O)c1cn(-c2ccc(CN3CCCC3)cc2F)c2c(Cl)c(N3CCN(c4ncccn4)CC3)c(F)cc2c1=O [Example 40, 8-chloro-6-fluoro-1-[2-fluoro-4-(pyrrolidin-1-ylmethyl)phenyl]-4-oxo-7-(4-pyrimidin-2-ylpiperazin-1-yl)-1,4-dihydroquinoline-3-carboxylic acid] |
| < 500 | O=C(O)c1cn(-c2ccc(CNC3CC3)cc2)c2c(Cl)c(N3CCN(c4ncccn4)CC3)c(F)cc2c1=O [Example 60, 8-chloro-1-{4-[(cyclopropylamino)methyl]-phenyl}-6-fluoro-4-oxo-7-(4-pyrimidin-2-ylpiperazin-1-yl)-1,4-dihydroquinoline-3-carboxylic acid] |
| < 500 | Cc1cccc(N2CCN(c3c(F)cc4c(=O)c(C(=O)O)cn(-c5ccc(CN6CCCC6)cc5)c4c3Cl)CC2)n1 [Example 13, 8-chloro-6-fluoro-7-[4-(6-methylpyridin-2-yl)-piperazin-1-yl]-4-oxo-1-[4-(pyrrolidin-1-ylmethyl)phenyl]-1,4-dihydroquinoline-3-carboxylic acid] |
